From patent publication US20250170155A1, “NUCLEOSIDE DERIVATIVES AND PRODRUGS THEREOF HAVING VIRAL GROWTH INHIBITORY ACTION” (Shionogi & Co., Ltd., priority 2021, published 2025)
Like-named read-outs stand apart in the source and are kept apart here.

How the values were obtained:
Format in all cases: cell-based
[1] = Cytotoxic activity evaluation, RPMI 2650 cells; conditions: human, no virus, 3 to 6 days
Procedure: (§1) <Operation Procedure (Cytotoxic Activity Evaluation)>
(§2) On the day before the compound treatment, cells prepared to an appropriate number were seeded in a 96 well plate at 100 μL/well. Thereafter, the cells were cultured in a CO2 incubator at 37° C. • Preparation of 2 μg/mL trypsin/0.5% BSA/MEM
(§3) Same as those described in the section for evaluation of antiviral activity • Dilution and dispensing of test substance
(§4) A 3- to 5-fold serial dilution series of test substances was prepared in DMSO in advance, and diluted with 2 μg/mL trypsin/0.5% BSA/MEM so that the final concentration of DMSO was 0.5% (100 to 200 μL/well). The cells were washed with MEM, and then cultured in a test substance-added medium for 3 to 6 days. Double measurement was performed for each drug. • Dispensing of resazurin solution
(§5) Same as those described in the section for evaluation of antiviral activity • Measurement of fluorescence intensity
(§6) Same as those described in the section for evaluation of antiviral activity
(§7) [formula] [formula] • Calculation of Selectivity Index (SI)

[2] = system: SARS-CoV-2 (hCoV-19/Japan/TY/WK-521/2020 strain); experiment: CPE suppression effect confirmation test (SARS-CoV-2, Vero E6/TMPRSS2 cells), antiviral activity; conditions: for EC50: read-out: SARS-CoV-2 EC50 (50% CPE inhibitory concentration), 3 days culture
[3] = system: influenza virus (A/WSN/33 (H1N1) strain); experiment: CPE suppression effect confirmation test (influenza virus, RPMI 2650 cells), antiviral activity; conditions: for EC50: read-out: Influenza EC50 (50% CPE inhibitory concentration), A/WSN/33 (H1N1), 3 to 6 days
[4] = Cytotoxic activity evaluation, Vero E6/TMPRSS2 cells; conditions: African green monkey, no virus
Procedure: as §1
(§8) A 3- to 5-fold serial dilution series of test substances was prepared in DMSO, diluted with 2% FBS/MEM so that the concentration of DMSO was 2%, and dispensed into a 96 well plate (50 μL/well, DMSO final concentration 0.5%). • Dilution and dispensing of cells
(§9) The cells prepared to an appropriate number were seeded at 100 μL/well to the plate into which the test substance was dispensed. Thereafter, the cells were cultured in a CO2 incubator at 37° C. for 3 days. • Dispensing of CellTiter-Glo (registered trademark) 2.0 Reagent
(§10) Same as those described in the section for evaluation of antiviral activity • Measurement of luminescence intensity
as §6
(§11) Excel, TIBCO Spotfire, or a program having equivalent calculation processing capability based on the following calculation formula.

RPMI 2650 cells = experiment: Cytotoxic activity evaluation, RPMI 2650 cells; conditions: read-out: Influenza test CC50 (50% cell proliferation inhibitory concentration), no virus, 3 to 6 days
Procedure: as §1, §2, §3, §4, §5, §6, §7

[5] = system: SARS-CoV-2 (hCoV-19/Japan/TY/WK 521/2020 strain); experiment: microbe, parasite or virus in culture; conditions: HEK293T/ACE2-TMPRSS2 cells; for EC50: Severe acute respiratory syndrome coronavirus 2, HEK-293T, 72 h, read-out: SARS-CoV-2 EC50 (50% CPE inhibitory concentration), 293T-AT, 3 days culture
Vero E6/TMPRSS2 cells = experiment: Cytotoxic activity evaluation, Vero E6/TMPRSS2 cells; conditions: read-out: SARS-CoV-2 test CC50 (50% cell proliferation inhibitory concentration), no virus, 3 days
Procedure: as §1, §8, §9, §10, §6, §11

[6] = Cytotoxic activity evaluation, HEK293T/ACE2-TMPRSS2 cells; conditions: human, no virus
Procedure: as §1
A 3- to 5-fold serial dilution series of test substances was prepared in DMSO, diluted with 2% FIBS/MEM so that the concentration of DMSO was 2%, and dispensed into a 96 or 384/well well plate (50 μL/well or 40 μL/well, DMSO final concentration 0.5%). • Dilution and dispensing of cells
The cells prepared to an appropriate number were seeded at 100 μL/well or 40 μL/well to the plate into which the test substance was dispensed. Thereafter, the cells were cultured in a CO2 incubator at 37° C. for 3 days. • Dispensing of CellTiter-Glo (registered trademark) 2.0 Reagent
as §10, §6, §7

[7] = Severe acute respiratory syndrome coronavirus 2, VeroE6/TMPRSS2, 72 h

| Compound | EC50 [3] [µM] | SARS-CoV-2 SI (Selectivity Index), 293T-AT [5] | EC50 [5] [µM] | CC50 at 3 days [6] [µM] | also measured |
| --- | --- | --- | --- | --- | --- |
| Nc1ncnn2c([C@@H]3N[C@H](CO)[C@@H](O)[C@H]3O)cnc12 [Compound I-001] | 1.05 | – | – | – | CC50 [1]: 70.5 µM; SARS-CoV-2 SI (Selectivity Index) [2]: <1.22; EC50 [2, 7]: > 0.8 µM; Influenza SI (Selectivity Index) [3]: 67.1; CC50 at 3 days [4]: 0.977 µM |
| Nc1ncnn2c([C@@H]3O[C@](F)(CO)[C@@H](O)C3(F)F)ccc12 [Compound I-008] | 7.01 | – | – | – | CC50 (RPMI 2650 cells): 432 µM |
| NC(=O)c1cc([C@@H]2N[C@H](CO)[C@@H](O)[C@H]2O)n2ncnc(N)c12 [Compound I-010] | – | 1050 | 0.0395 | – | SARS-CoV-2 SI (Selectivity Index) [2]: 2488; EC50 [2, 7]: 0.18 µM; CC50 at 3 days [4]: 448 µM |
| N/C(=N\O)c1cc([C@@H]2N[C@H](CO)[C@@H](O)[C@H]2O)n2ncnc(N)c12 [Compound I-016] | – | – | – | – | EC50 [2]: 1.57 µM; CC50 (Vero E6/TMPRSS2 cells): > 500 µM |
| CC1(C)O[C@@H]2[C@H](O1)[C@@H](CO)N[C@H]2c1cc(/C=N/O)c2c(N)ncnn12 [Compound I-018] | 1.06 | – | – | – | CC50 (RPMI 2650 cells): > 500 µM |
| OC[C@H]1N[C@@H](c2ccc3c(NO)ncnn23)[C@H](O)[C@@H]1O [Compound I-020] | 20.2 | – | – | – | CC50 (RPMI 2650 cells): > 500 µM |
| Nc1ncnn2c([C@@H]3N[C@H](CO)[C@@H](O)[C@H]3O)cc(O)c12 [Compound I-022] | 105 | – | – | – | CC50 (RPMI 2650 cells): > 500 µM; EC50 [2]: 1.03 µM; CC50 (Vero E6/TMPRSS2 cells): 129 µM |
| Cl.Cl.Nc1ncnn2c([C@@H]3N[C@H](CO)[C@@H](O)[C@H]3O)cc(-c3c[nH]cn3)c12 [Compound I-023] | 0.983 | – | – | – | CC50 [1]: 51.8 µM; SARS-CoV-2 SI (Selectivity Index) [2]: 923; EC50 [2, 7]: 0.17 µM; Influenza SI (Selectivity Index) [3]: 52.7; CC50 at 3 days [4]: 157 µM |
| CC(C)(C)OC(=O)N1[C@H](CO)[C@@H](O)[C@@H](O)[C@@H]1c1cc(N)c2c(N)ncnn12 [Compound I-024] | 47.9 | – | – | – | CC50 (RPMI 2650 cells): 310 µM; EC50 [2]: 49.3 µM; CC50 (Vero E6/TMPRSS2 cells): 189 µM |
| Cn1ccc(-c2cc([C@H]3[C@@H]4OC(C)(C)O[C@@H]4[C@@H](CO)N3C(=O)OC(C)(C)C)n3ncnc(N)c23)n1 [Compound I-030] | 7.65 | – | – | – | CC50 (RPMI 2650 cells): > 500 µM |
| Cl.Nc1ncnn2c([C@@H]3N[C@H](CO)[C@@H](O)[C@H]3O)cc(-c3nc[nH]n3)c12 [Compound I-037] | > 4 | – | – | – | CC50 [1]: 6.81 µM; SARS-CoV-2 SI (Selectivity Index) [2]: 8.63; EC50 [2, 7]: 1.97 µM; Influenza SI (Selectivity Index) [3]: <1.70; CC50 at 3 days [4]: 17 µM |
| CC(O)c1cc([C@@H]2N[C@H](CO)[C@@H](O)[C@H]2O)c2ncnc(N)n12 (stereo partly drawn) [Compound I-038] | 4.41 | – | – | – | CC50 (RPMI 2650 cells): > 500 µM |
| N#C[C@@]1(c2c[nH]c3c(N)ncnc23)O[C@H](CO)[C@@H](O)[C@H]1O [Compound I-048] | – | – | – | – | EC50 [2]: 40.9 µM; CC50 (Vero E6/TMPRSS2 cells): > 500 µM |
| Cl.N/C(=N\O)c1cc([C@@H]2N[C@H](CO)[C@@H](O)[C@H]2O)n2nc(F)nc(N)c12 [Compound I-056] | – | – | – | – | SARS-CoV-2 SI (Selectivity Index) [2]: >17.7; EC50 [2, 7]: 28.2 µM; CC50 at 3 days [4]: > 500 µM |
| Cl.NC(=O)c1cc([C@@H]2N[C@H](CO)[C@@H](O)[C@H]2O)n2nc(F)nc(N)c12 [Compound I-057] | – | – | – | – | SARS-CoV-2 SI (Selectivity Index) [2]: 434; EC50 [2, 7]: 0.131 µM; CC50 at 3 days [4]: 56.8 µM |
| C#CCNC(=O)c1cc([C@@H]2N[C@H](CO)[C@@H](O)[C@H]2O)n2ncnc(N)c12 [Compound I-075] | – | – | – | – | SARS-CoV-2 SI (Selectivity Index) [2]: >185; EC50 [2, 7]: 2.7 µM; CC50 at 3 days [4]: > 500 µM |

| Compound | EC50 [3] [µM] | SARS-CoV-2 SI (Selectivity Index), 293T-AT [5] | EC50 [5] [µM] | CC50 at 3 days [6] [µM] | also measured |
| --- | --- | --- | --- | --- | --- |
| CN1[C@H](CO)[C@@H](O)[C@@H](O)[C@@H]1c1cc(C(N)=O)c2c(N)ncnn12.Cl [Compound I-076] | – | – | – | – | SARS-CoV-2 SI (Selectivity Index) [2]: >30.7; EC50 [2, 7]: 16.3 µM; CC50 at 3 days [4]: > 500 µM |
| CCn1ccc(-c2cc([C@@H]3N[C@H](CO)[C@@H](O)[C@H]3O)n3ncnc(N)c23)n1.Cl [Compound I-081] | – | 222 | 1.38 | 306 | – |
| Cl.Nc1nc(F)nn2c([C@@H]3N[C@H](CO)[C@@H](O)[C@H]3O)cc(-c3c[nH]nn3)c12 [Compound I-082] | – | 37.8 | 3.97 | 150 | – |
| Cl.Nc1ncnc2c([C@@H]3N[C@H](CO)[C@@H](O)[C@H]3O)cc(-c3c[nH]nn3)n12 [Compound I-083] | – | 8.71 | 5.2 | 45.3 | – |
| Cc1cc(-c2cc([C@@H]3N[C@H](CO)[C@@H](O)[C@H]3O)n3nc(F)nc(N)c23)[nH]n1.Cl [Compound I-084] | – | 48.2 | 5.33 | 257 | – |
| Cn1ncc(-c2cc([C@@H]3N[C@H](CO)[C@@H](O)[C@H]3O)n3ncnc(N)c23)n1 [Compound I-086] | – | 19.4 | 11.6 | 225 | – |
| Cl.Nc1ncnn2c([C@@H]3N[C@H](CO)[C@@H](O)[C@H]3O)cc(-c3cc(O)ccn3)c12 [Compound I-087] | – | 3.97 | 18.9 | 75 | – |
| Cc1nc(-c2cc([C@@H]3N[C@H](CO)[C@@H](O)[C@H]3O)n3ncnc(N)c23)n[nH]1 [Compound I-088] | – | >16.4 | 30.4 | > 500 | – |
| Cc1nc(N)c2c(C(N)=O)cc([C@@H]3N[C@H](CO)[C@@H](O)[C@H]3O)n2n1.Cl [Compound I-089] | – | >14.2 | 35.3 | > 500 | – |
| Cc1cnc(-c2cc([C@@H]3N[C@H](CO)[C@@H](O)[C@H]3O)n3ncnc(N)c23)o1.Cl [Compound I-090] | – | >13.1 | 38.1 | > 500 | – |
| Cc1c[nH]c(-c2cc([C@@H]3N[C@H](CO)[C@@H](O)[C@H]3O)n3ncnc(N)c23)n1 [Compound I-091] | – | >2.29 | 218 | > 250 | – |
| Cl.Nc1ncnn2c([C@@H]3N[C@H](CO)[C@@H](O)[C@H]3O)cc(-c3ccn(CCO)n3)c12 [Compound I-092] | – | >1577 | 0.317 | > 500 | – |
| CCn1cc(-c2cc([C@@H]3N[C@H](CO)[C@@H](O)[C@H]3O)n3ncnc(N)c23)nn1.Cl [Compound I-093] | – | >2.37 | 211 | > 500 | – |
| Cl.Nc1nc(F)nn2c([C@@H]3N[C@H](CO)[C@@H](O)[C@H]3O)cc(-c3ncc[nH]3)c12 [Compound I-094] | – | >10.2 | 49.1 | > 500 | – |
| Cl.[2H]C([2H])(O)[C@H]1N[C@@H](c2cc(C(N)=O)c3c(N)ncnn23)[C@H](O)[C@@H]1O [Compound I-095] | – | 2769 | 0.0228 | 62.9 | – |
